Assay results reported in patent US20180044422A1, “TREATING SOLID TUMOR BY TARGETING DECTIN-1 SIGNALING” (New York University, priority 2016, published 2018).

Key:
[1] = test system: pancreatic oncogenesis in KC mice; experiment: KC mice endogenous pancreatic tumor model; type: in vivo, mouse; settings: Dectin-1-/- mice, 20 mg/kg i.p. five times weekly, 8 weeks, vs vehicle
Excerpt: C57BL/6 (H-2Kb) mice were purchased from Jackson Labs (Bar Harbor, Me.) and bred in-house. KC and KPC mice develop pancreatic neoplasia endogenously by expressing mutant Kras alone or mutant Kras and p53, respectively, in the progenitor cells of the pancreas (Hingorani et al., Cancer Cell, 2003, 4, 437-450; Hingorani et al., Cancer Cell, 2005, 7, 469-483). Tumor progression and survival in control KC mice has been previously detailed (Daley et al., Cell, 2016, 166, 1485-1499). Dectin-1^−/− mice were crossed with KC mice to generate KC; Dectin-1^−/− animals. For orthotopic pancreatic tumor challenge, mice were administered intra-pancreatic injections of either Kras^G12D PDEC or FC1242 tumor cells derived from KPC mice. Kras^G12D PDEC and FC1242 cells were generated as previously described (Pylayeva-Gupta et al., Cancer Cell, 2012, 21, 836-847; Zambirinis et al., J Exp Med., 2015, 212, 2077-2094). […] Mice were sacrificed 3 weeks later and tumor weight recorded. […] PDEC proliferation was measured using the XTT assay according to the manufacturer's protocol (Roche, Nutley, N.J.). […]
For histological analysis, pancreatic specimens were fixed with 10% buffered formalin, dehydrated in ethanol, embedded with paraffin, and stained with H&E or Gomori's Trichrome. The fraction of preserved acinar area was calculated as previously described (Seifert et al., Nature, 2016, 532, 245-249). […]

[2] = test system: bone-marrow derived macrophages (BMDM); experiment: Dectin-1 expression in bone-marrow derived macrophages; type: cell-based, mouse; settings: cytokine added to day 8 BMDM cultures for 24h
[3] = test system: Dectin-1/Galectin-9 interaction; experiment: Galectin-9 immunoprecipitation with PNGase F or lactose treatment; type: binding; settings: PNGase F pretreatment of Dectin-1 or 100 mM lactose pre-incubation of Galectin-9; SDS-PAGE
Experimental: Dectin-1 IgG Fc (8 μg; InvivoGen) was treated with PNGase F (20 μl, ˜10,000 units; New England Biolabs) following the company's non-denaturing protocol (37° C., 24 hr). PNGase F treated and untreated Dectin-1 IgG Fc samples (4 μg; InvivoGen) were added to protein G beads (25 μl, Dynabeads Protein G; novex) and the mixtures were incubated at room temperature for 10 min. The beads were washed 2× with PBS-T (pH 7.4 with 0.02% tween). Recombinant mouse Galectin-9 (4 μg; R&D Systems) was resuspended in PBS-T or a solution of 100 mM lactose in PBS-T. Galectin-9 samples were then incubated with the Dynabead/Dectin-1 IgG Fc complex for 20 min at room temperature. The Dynabeads were then washed 3× with PBS-T and transferred to a clean tube. Galectin-9 and Dectin-1 IgG Fc were eluted in SDS-PAGE buffer (PBS with 10% BME) by heating at 98° C. for 10 min. The samples were then analyzed by SDS-PAGE and stained with Coomassie Blue.

| Molecule | Dectin-1 expression in BMDM [2] | also measured |
| --- | --- | --- |
| Oc1cc(O)cc(/C=C/c2ccc(O)c(O)c2)c1 [Piceatannol] |  | pancreatic tumor weight [1]: no effect |
| TNF-α | did not influence Dectin-1 expression |  |
| OC[C@H]1O[C@@H](O[C@H]2[C@H](O)[C@@H](O)C(O)O[C@@H]2CO)[C@H](O)[C@@H](O)[C@H]1O (stereo partly shown) [lactose] |  | effect on Dectin-1/Galectin-9 binding [3]: no alteration of the Dectin-1/Galectin-9 interaction |
| TGF-3: cytokine added to BMDM cultures; printed TGF-β in methods | did not influence Dectin-1 expression |  |
